Laboratory results published in patent publication US20240239806A1, “COMPOUNDS, COMPOSITIONS AND METHODS OF TREATING DISORDERS” (Chengdu Anticancer Bioscience, Ltd., priority 2021, published 2024).
Like-named read-outs stand apart in the source and are kept apart here.

Assays:
Human Cancer Cells = assay: Anchorage-independent growth in 3D culture (FIG. 3); format: cell-based; settings: FIG. 3 legend, cell line not named
Source text: (§1) Measuring the ability of cells to grow in soft agar has been popularly believed as the gold standard assay for cellular transformation in vitro. In the Soft Agar Assay, cells grow from single cells to cell colonies in a semi-solid agar solution that keeps them away from the solid surface and allows growth in an anchorage-independent way.
(§2) The anchorage-independent growth of cells is one of the hallmarks of cancer cells. Normal epithelial cells are supported by basement membranes that provide survival and proliferative signals while undergo a type of apoptosis called anoikis when lose their attachment to the extracellular matrix. Cancer cells, in contrast, evade detachment-induced apoptosis, leading to uncontrolled proliferation and metastasis. The Soft Agar Colony Formation Assay allows testing of the therapeutic efficacy of compounds against anchorage-independent 3D growth of cancer cells in vin. The assay was performed in 6-well plates with two layers of agar. For the first, 0.75% agar in DMEM medium was melted in a microwave oven and poured to form a bottom layer. Once solidified, 10-100K cells in 1 ml of DMEM containing 0.35% agar was added to form the top layer, which was later covered with 0.5 ml of DMEM. Cell culture medium was changed once every two days until colonies were ready to photograph. We test the antitumor activity of select compounds in soft agar colony formation assays. […] The suppression of growth of these three cancer cell lines in 3D culture is consistent with the potent impact of these compounds on cellular proliferation in 2D culture.

[1] = tested on: cervical cancer cell line Hela; assay: Soft agar colony formation assay; format: cell-based, human
Source text: as §1, §2

RPEMYC^H2B-GFP cells = assay: Phenotypic screening assay (mitotic arrest, polyploidy); format: cell-based; settings: 1 nM to 30 μM; for IC50: read-out: Proliferative arrest (>50%)
Outline: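 RPE cells expressing MYC and H2B-EGFP treated with compound at 1 nM–30 μM; mitotic index scored at 24 h and polyploidy (DNA content) at 48 h by automated imaging, with reads at 24, 48 or 72 h. Hits show transient mitotic arrest followed by polyploid accumulation.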

MDA-MB-231 [2] = assay: MTT assay of cellular proliferation; format: cell-based; settings: Homo sapiens; MDA-MB-231, MTT, 50% inhibition of cellular proliferation
Procedure: (§3) Six lung cancer cell lines (NCI-H23, NCI-H460, NCI-H596, NCI-H2170, Calu-6 and A549), two colon cancer cell lines (HCT116 and SW460), one breast cancer cell line MDA-MB-231, one gastric cancer cell line NCI-N87, one prostate cancer cell line DU145, one cervical cancer cell line Hela, and one glioblastoma cell line T98G were obtained from ATCC. The T2 HCC cell line was derived from a mouse liver cancer model initiated by a transgene of MYC. All cell lines were cultured in DMEM (Gibco, Cleveland, TN, USA) supplemented with 5% fetal bovine serum (Gibco), penicillin (100 U/mL)—streptomycin (100 μg/mL) (Gibco, Cat. No. 15140-122), 2 mM L-glutamine (Gibco, 200 mM solution, Cat. No. 25030081), and 1 mM sodium pyruvate (Gibco, 100 mM solution, Cat. No. 11360070) at 37° C. in a humidified incubator that was maintained at 5% CO2.
(§4) The MTT assay measures cellular metabolic activity as a proxy for cell viability and involves the conversion of the water-soluble yellow dye MTT [3-(4,5-dimethylthiazol-2-yl)-2,5-diphenyltetrazolium bromide] into an insoluble purple formazan by the action of mitochondrial reductase. Formazan is then solubilized and its concentration is determined by measuring the optical density (OD) value at a wavelength of 570 nm. The value is in proportional to the number of live cells with excellent linearity up to ˜10^6 cells per well. The MTT assay was used to determine the EC50 value, the concentration of a compound that leads to 50% inhibition of cellular proliferation. Briefly, cells were split when growing to the mid-Log phase. Cells in 100 μL of culture medium were seeded into each well of 96-well microplates and cultivated for 15-24 hours to reach a confluence of 20-30% and were then exposed to drugs at concentrations ranging from 1 nM to 30 μM. At the endpoint, 20 μL of a MTT stock solution in DMSO (5 mg/mL) was added to each well that contains 100 μL of DMEM. The microplates were left in the cell culture incubator for 3-4 h before subjected to solubilization and determination of formazan at A570 in a microplate reader (BioTek ELX808iu). […] Therefore, these compounds might hold a broad utility in the treatment of a large variety of human malignancies.

NCI-H23 [3] = assay: MTT assay of cellular proliferation; format: cell-based; settings: Homo sapiens, 50% inhibition of cellular proliferation
Procedure: as §3, §4

T2 HCC [4] = assay: MTT assay of cellular proliferation; format: cell-based; settings: Mus musculus, 50% inhibition of cellular proliferation
Procedure: as §3, §4

Hela [5] = assay: MTT assay of cellular proliferation; format: cell-based; settings: Homo sapiens, 50% inhibition of cellular proliferation
Procedure: as §3, §4

HCT116 [6] = assay: MTT assay of cellular proliferation; format: cell-based; settings: Homo sapiens, HCT-116, 50% inhibition of cellular proliferation
Procedure: as §3, §4

T98G [7] = assay: MTT assay of cellular proliferation; format: cell-based; settings: Homo sapiens, 50% inhibition of cellular proliferation
Procedure: as §3, §4

NCI-H596 [8] = assay: MTT assay of cellular proliferation; format: cell-based; settings: Homo sapiens, 50% inhibition of cellular proliferation
Procedure: as §3, §4

NCI-H460 [9] = assay: MTT assay of cellular proliferation; format: cell-based; settings: Homo sapiens, 50% inhibition of cellular proliferation
Procedure: as §3, §4

NCI-H23 [10] = assay: MECP in cancer cell line; format: cell-based; settings: Homo sapiens
Procedure: as §3, with “CO2. […]” for “CO2.”

MDA-MB-231 [11] = assay: MECP in cancer cell line; format: cell-based; settings: Homo sapiens
Procedure: as §3
(§5) We have previously developed a mechanism-informed phenotypic screening assay to identify novel antimitotic agents. Equipped with a prior understanding of the versatile functions of the chromosomal passenger protein (CPP) complex in orchestrating karyokinesis and cytokinesis, the screening assay is to score for phenotypes typically seen when the CPP complex is disabled. Specifically, the parameters for a positive hit are a temporary elevation of mitotic index (MI) at 24 hours of drug treatment and an accumulation of polyploid cells at 48 hours of drug treatment, indicative of mitotic arrest and cytokinetic failure respectively. These parameters exclude compounds that elicit only a prolonged arrest of cells in mitosis, a phenotype typically provoked by spindle toxins. The screening procedure is briefly summarized here. RPEMYC^H2B-GFP cells engineered to express a Histone 2B-EGFP fusion protein were passaged as batches of 96-well plates, 18-24 hours before exposure to the chemical compounds of the present disclosure at concentrations from 1 nM to 30 μM. At 24, 48 or 72 hours after initiation of treatment, cells were analyzed for either an arrest in mitosis or a change in DNA content by GE IN-Cell Analyzer 2000. As set forth in Table 2 below, a value of greater than or equal to 1 nM and less than or equal to 1.0 μM is marked “A”; a value greater than 1.00 μM and less than or equal to 10.0 μM is marked “B”; a value greater than 10.0 μM and less than or equal to 30.0 μM is marked “C”; and a value greater than 30.0 μM is marked “D.”

T2 HCC [12] = assay: MECP in cancer cell line; format: cell-based; settings: Mus musculus
Procedure: as §3, §5

Hela [13] = assay: MECP in cancer cell line; format: cell-based; settings: Homo sapiens
Procedure: as §3, §5

HCT116 [14] = assay: MECP in cancer cell line; format: cell-based; settings: Homo sapiens, HCT-116
Procedure: as §3, §5

T98G [15] = assay: MECP in cancer cell line; format: cell-based; settings: Homo sapiens
Procedure: as §3, §5

NCI-H596 [16] = assay: MECP in cancer cell line; format: cell-based; settings: Homo sapiens
Procedure: as §3, §5

NCI-H460 [17] = assay: MECP in cancer cell line; format: cell-based; settings: Homo sapiens
Procedure: as §3, §5

SW480 [18] = assay: MTT assay of cellular proliferation; format: cell-based; settings: Homo sapiens, 50% inhibition of cellular proliferation
Procedure: as §3, §4

A549 [19] = assay: MTT assay of cellular proliferation; format: cell-based; settings: Homo sapiens, 50% inhibition of cellular proliferation
Procedure: as §3, §4

NCI-N87 [20] = assay: MTT assay of cellular proliferation; format: cell-based; settings: Homo sapiens, 50% inhibition of cellular proliferation
Procedure: as §3, §4

NCI-N87 [21] = assay: MECP in cancer cell line; format: cell-based; settings: Homo sapiens
Procedure: as §3, with “CO2. […]” for “CO2.”

SW480 [22] = assay: MECP in cancer cell line; format: cell-based; settings: Homo sapiens
Procedure: as §3, §5

A549 [23] = assay: MECP in cancer cell line; format: cell-based; settings: Homo sapiens
Procedure: as §3, §5

[24] = read-out: Min. Effective conc. for Polyploidy (≥5%)

SMILES	minimal effective concentration (RPEMYC^H2B-GFP cells; [24]) [µM]	minimal effective concentration (RPEMYC^H2B-GFP cells; read-out: Mitotic Arrest (≥5%)) [µM]	IC50 (RPEMYC^H2B-GFP cells) [nM]	EC50 (MDA-MB-231 [2]) [nM]	EC50 (NCI-H23 [3]) [nM]	EC50 (T2 HCC [4]) [nM]	EC50 (Hela [5]) [nM]	EC50 (HCT116 [6]) [nM]	minimal effective concentration (NCI-H23 [10]) [µM]	minimal effective concentration (MDA-MB-231 [11]) [µM]	minimal effective concentration (T2 HCC [12]) [µM]	minimal effective concentration (Hela [13]) [µM]	minimal effective concentration (HCT116 [14]) [µM]	EC50 (SW480 [18]) [nM]	EC50 (A549 [19]) [nM]	EC50 (NCI-N87 [20]) [nM]	minimal effective concentration (NCI-N87 [21]) [µM]	minimal effective concentration (SW480 [22]) [µM]	minimal effective concentration (A549 [23]) [µM]	other results
COC(=O)c1cc(OC)cc(Oc2ccnc3ccccc23)c1 [Compound 8, Methyl 3-methoxy-5-(quinolin-4-yloxy)benzoate]	0.001 to 1	0.001 to 1	1 to 1000	1 to 1000	1 to 1000	1 to 1000	1 to 1000	1 to 1000	0.001 to 1	0.001 to 1	0.001 to 1	0.001 to 1	0.001 to 1							Anchorage-independent Growth of Human Cancer Cells in 3D Culture (Human Cancer Cells): Suppress the Anchorage-independent Growth; anchorage-independent growth in soft agar [1]: effectively suppressed the anchorage-independent growth; EC50 (T98G [7]): 1000 to 10000 nM; EC50 (NCI-H596 [8]): 1000 to 10000 nM; EC50 (NCI-H460 [9]): > 30000 nM; minimal effective concentration (T98G [15]): 1 to 10 µM; minimal effective concentration (NCI-H596 [16]): 0.001 to 1 µM; minimal effective concentration (NCI-H460 [17]): 1 to 10 µM
COc1cc(NC(C)=O)cc(Oc2ccnc3ccc(OC)cc23)c1 [Compound 18, N-(3-methoxy-5-((6-methoxyquinolin-4-yl)oxy)phenyl)acetamide]	0.001 to 1	0.001 to 1	1 to 1000	1 to 1000	1 to 1000	1 to 1000	1 to 1000	1 to 1000	0.001 to 1	0.001 to 1	0.001 to 1	0.001 to 1	0.001 to 1	1 to 1000	1 to 1000	1 to 1000	0.001 to 1	0.001 to 1	0.001 to 1	
COc1cc(Oc2ccnc3ccc(F)cc23)cc(-n2cccn2)c1 [Compound 19, 6-fluoro-4-(3-methoxy-5-(1H-pyrazol-1-yl)phenoxy)quinoline]	0.001 to 1	0.001 to 1	1 to 1000	1 to 1000	1 to 1000	1 to 1000	1 to 1000	1 to 1000	0.001 to 1	0.001 to 1	0.001 to 1	0.001 to 1	0.001 to 1	1000 to 10000	1 to 1000	1 to 1000	0.001 to 1	0.001 to 1	0.001 to 1	
COc1cc(Oc2ncnc3cc[nH]c23)cc(-n2cccn2)c1 [Compound 35, 4-(3-methoxy-5-(1H-pyrazol-1-yl)phenoxy)-5H-pyrrolo[3,2-d]pyrimidine]	0.001 to 1	0.001 to 1	1 to 1000	1 to 1000	1 to 1000	1 to 1000	1 to 1000	1 to 1000	0.001 to 1	0.001 to 1	0.001 to 1	0.001 to 1	0.001 to 1	1 to 1000	1 to 1000	1 to 1000	0.001 to 1	0.001 to 1	0.001 to 1	
